These results are taken from patent US12569482B2, “Methods and compositions for treating idiopathic pulmonary fibrosis” (priority 2018, dated 2026).

Read-outs that look alike come from different tables or passages of the source.

Data set [1] relates to bleomycin-induced lung fibrosis. In words: Bleomycin induced IPF mouse model, Example 2 (oral itraconazole, nintedanib or combination). The data set is classed as in vivo, C57BL/6 mice. How it is done:
The animals in the Control group were administered intratracheally with PBS at a dose of 2 mL/kg while the others were administered intratracheally with bleomycin (Cat #HY-17565, MCE) at a dose of 0.66 mg/kg. On Day 5, the mice with bleomycin treatment were divided into four groups at random (referred to as Group 2-5, n=10), and orally administered with vehicle (DMSO: PEG400=1:[…]), itraconazole ([…] Co. Ltd. prepared in DMSO/PEG400 with a final concentration of 1.5 mg/mL), nintedanib ([…] Co. […] The mice in the Control group was administered with vehicle (DMSO/PEG400) at a daily dose of 10 mL/kg. Mice body weights were measured and recorded on Day 1, 5, 12, 19 and 21.

Data set [2] in a line: Plasma drug levels, Example 2. The data set is classed as in vivo, C57BL/6 mice. The conditions noted are these: C57BL/6, mouse. The protocol: On Day 5, the mice with bleomycin treatment were divided into four groups at random (referred to as Group 2-5, n=10), and orally administered with vehicle (DMSO: PEG400=1:9, V/V), itraconazole (Kangmanlin Co. Ltd. prepared in DMSO/PEG400 with a final concentration of 1.5 mg/mL), nintedanib (Kangmanlin Co. Ltd., prepared in DMSO/PEG400 with a final concentration of 6.0 mg/mL), and itraconazole+nintedanib (prepared in DMSO/PEG400 with final concentrations of 1.5 mg/mL and 6.0 mg/mL) at daily doses of 10 mL/kg, 15 mg/kg, 60 mg/kg and 15+60 mg/kg, respectively. The mice in the Control group was administered with vehicle (DMSO/PEG400) at a daily dose of 10 mL/kg. Mice body weights were measured and recorded on Day 1, 5, 12, 19 and 21.
Two hours post drug administration on Day 21, all animals were anaesthetized with pentobarbital (i.p., 60 mg/kg). Blood sample, bronchoalveolar lavage fluid (BALF) and lung lobes were collected from each mouse and then processed following the protocols in Example 1.

Data set [3] has as its system bleomycin-induced pulmonary fibrosis. In words: Bleomycin mouse model of pulmonary fibrosis, Example 3 (itraconazole inhalation, oral nintedanib). As to conditions: oral 60 mg/kg. The data set is classed as in vivo, ICR mice. How it is done:
Iodine was used to disinfect the neck hair and skin. Later, the neck skin was cut to expose the trachea. 50 μL of PBS or bleomycin hydrochloride (Hisun Pfizer pharmaceutical Co., LTD, 17001711) in 0.9% sodium chloride solution ([…], i.e., […]) was quickly sprayed as mist into the trachea of mice from the Control Group or the other group with a high pressure syringe connected to a spraying nozzle. At the end, the skin was sutured and disinfected, and the mice were returned to the cages for recovery. On Day 5, the mice treated with bleomycin were divided into six groups at random (referred to as Group 2-7). […] For itraconazole inhalation, each mouse was placed in a 16×13×9 (length×width×height in cm) cabinet. Itraconazole preparation of 5, 15 or 50 mg/mL was sprayed into the cabinet with a compressed nebulizer. [table] Twenty-four hours after the last drug administration, the mice were sacrificed by dislocation of cervical vertebra. The trachea was isolated and intubated. The upper lobe of the left lung was ligated. […] The total number of leukocytes in the BALF was counted. The BALF was centrifuged at 2000 rpm/min for 10 min at 4° C. The supernatant was collected and stored at -80° C. for cytokine measurement, and the deposit was smeared on glass slides. After air drying at room temperature, the slides were subjected to Wright's-Giemsa staining. The number of neutrophils, lymphocytes and macrophages were counted under a microscope from a total of 200 cells for each slide. The upper left lung tissues were used for measuring the level of hydroxyproline, and the lower part was fixed in formalin for H&E staining and Masson's staining. The level of hydroxyproline in the lung tissues was measured using a Hydroxyproline Assay kit (Nanjing JianCheng Bioengineering Institute). The level of TGF-β1 in 100 μL BALF was determined using a mouse TGF-β1 ELISA kit (Beijing 4A Biotech Co., LTD), and the level of type I collagen (Col I) in 100 μL BALF was determined using a mouse Collagen Type I ELISA kit (CUSABIO BIOTEH). […] Then, the lung tissues were sectioned into 4 μm-thick sections for H&E staining and Masson's staining. H&E staining was used to observe the alveolar hyperemia, the infiltration or aggregation of neutrophils in the alveolar space or the vascular wall, and the thickening of alveolar septum or the formation of hyaline membranes. The degree of fibrosis in the lesions with H&E staining was observed under microscope and scored using a semi-quantitative Ashcroft scoring criteria below. Grade 0: Normal tracheal bronchoalveolar structures; Grade 1: Minimal fibrous thickening of alveolar or bronchiolar walls; Grade 3: Moderate thickening of walls without obvious damage to lung architecture; Grade 5: Increased fibrosis with definite damage to lung structure and formation of fibrous bands or small fibrous masses; Grade 7: Severe distortion of structure and large fibrous areas, with honeycomb lung placed in this category; Grade 8: Total fibrous obliteration. The severity of fibrosis between two odd numbers was considered as the corresponding even number. On the other hand, IOD value of positive Masson's staining site was measured by Image pro software for analysis. The data were tested for the homogeneity of variance. If the variance was homogenous (p>0.05), a single factor variance analysis was performed. The Dunnet test was performed for the differences between each dose group and the control group. If the variance was heterogenous (p 0.05), a non-parametric test was conducted, followed by the […] test for examining the differences between each dose group and the control group. The difference was considered significant when p<0.05.

The mark [4] stands for this setting: compared to model group, 15 mg/kg, 60 mg/kg, 15+60 mg/kg p.o. daily.

Turning to `COC(=O)c1ccc2c(c1)NC(=O)/C2=C(\Nc1ccc(N(C)C(=O)CN2CCN(C)CC2)cc1)c1ccccc1` [nintedanib], in data set [1] (setting [4]), the BALF collagen level result is recorded as “reduced”, the BALF neutrophil number entry is reported as “reduced”, the lung inflammation area entry is reported as “significantly reduced” and the “modified Ashcroft score” value was “significantly reduced”. Besides, in data set [1] (setting [4]), the α-SMA staining area result is “significantly reduced”. Further, the mice body weight result in data set [1] (itraconazole 15 mg/kg, nintedanib 60 mg/kg, 15+60 mg/kg p.o. daily Day 5-21) is recorded as “inhibited bleomycin-induced body weight reduction to some extent”. The concentration at 2 h in data set [2] (oral, Day 21, itraconazole 15 mg/kg, nintedanib 60 mg/kg p.o. daily, read-out: two-hour post dosing plasma level, single agent) was found to be 310 ng/mL. The concentration at 2 h in data set [2] (po, Day 21, 15+60 mg/kg p.o. daily, read-out: two-hour post dosing plasma drug level, itraconazole and nintedanib combined in administration) was 397 ng/mL. Further, in data set [3], the “level of Col I in the BALF” value was “did not reduce”; the “number of lymphocytes and macrophages in the BALF” value was “had no effects”; the “pathological changes of lung tissues (H&E staining)” value was “significantly reduced the infiltration of neutrophils and macrophages and the thickening of alveolar septum”. In addition, in data set [3] (p<0.001), the “collagen deposition in the lung tissues (Masson's staining IOD)” value is listed as “significantly reduced the collagen deposition” and the “level of TGF-β1 in the BALF” value is reported as “significantly reduced”. Moreover, in data set [3] (p<0.01), the “level of hydroxyproline in the lung tissues” value is given as “significantly reduced”, the “neutrophils in the BALF” value was “significantly reduced”, the “semi-quantitative Ashcroft Score” value is given as “significantly reduced the pulmonary fibrosis” and the “total number of leukocytes in the BALF” value is “significantly reduced”.
